Source: ChEMBL document CHEMBL4145694 (J Med Chem, 2018)
Active and inactive are the calls of the source. No cut-off for these calls is given here.

Experiments:
[1] = target: Delta-type opioid receptor (Homo sapiens) (UniProt P41143); test: Antagonist activity at human delta-opioid receptor expressed in CHO cell membranes assessed as inhibition of DPDPE-induced [35S]GTPgammaS binding incubated for 60 mins by scintillation counting method; format: functional
[2] = target: Mu-type opioid receptor (Homo sapiens) (UniProt P35372); test: Agonist activity at human mu-opioid receptor expressed in CHO cell membranes assessed as stimulation of [35S]GTPgammaS binding at 10 uM incubated for 60 mins by scintillation counting method; format: functional
[3] = target: Delta-type opioid receptor (Homo sapiens) (UniProt P41143); test: Agonist activity at human delta-opioid receptor expressed in CHO cell membranes assessed as stimulation of [35S]GTPgammaS binding at 10 uM incubated for 60 mins by scintillation counting method; format: functional
[4] = target: Kappa-type opioid receptor (Homo sapiens) (UniProt P41145); test: Agonist activity at human kappa-opioid receptor expressed in CHO cell membranes assessed as stimulation of [35S]GTPgammaS binding at 10 uM incubated for 60 mins by scintillation counting method; format: functional
[5] = Half life in plasma of Sprague-Dawley CD rat at 5 mg/kg, sc administered as single dose measured over 1 to 168 hrs post dose by LC/MS-MS method; format: ADME, organism-based
[6] = Clearance in plasma of Sprague-Dawley CD rat at 5 mg/kg, sc administered as single dose measured over 1 to 168 hrs post dose by LC/MS-MS method; format: ADME, organism-based
[7] = AUClast in plasma of Sprague-Dawley CD rat at 5 mg/kg, sc administered as single dose measured over 1 to 168 hrs post dose by LC/MS-MS method; format: ADME, organism-based; set-up: dose 5 mg/kg, route subcutaneous, time 0 - last
[8] = Total AUC in plasma of Sprague-Dawley CD rat at 5 mg/kg, sc administered as single dose measured over 1 to 168 hrs post dose by LC/MS-MS method; format: ADME, organism-based; set-up: dose 5 mg/kg, route subcutaneous, time AUCmax
[9] = Ratio of AUClast in brain to plasma of Sprague-Dawley CD rat at 5 mg/kg, sc administered as single dose measured over 1 to 168 hrs post dose by LC/MS-MS method; format: ADME, organism-based; conditions: brain
[10] = Drug level in plasma of Sprague-Dawley CD rat at 5 mg/kg, sc administered as single dose measured after 168 hrs post dose by LC/MS-MS method; format: ADME, organism-based; conditions: in vivo
[11] = Drug level in brain of Sprague-Dawley CD rat at 5 mg/kg, sc administered as single dose measured after 168 hrs post dose by LC/MS-MS method; format: ADME, organism-based; conditions: in vivo
[12] = Half life in brain of Sprague-Dawley CD rat at 5 mg/kg, sc administered as single dose measured over 1 to 168 hrs post dose by LC/MS-MS method; format: ADME, organism-based
[13] = AUClast in brain of Sprague-Dawley CD rat at 5 mg/kg, sc administered as single dose measured over 1 to 168 hrs post dose by LC/MS-MS method; format: ADME, organism-based; conditions: in vivo
[14] = Total AUC in brain of Sprague-Dawley CD rat at 5 mg/kg, sc administered as single dose measured over 1 to 168 hrs post dose by LC/MS-MS method; format: ADME, organism-based; set-up: dose 5 mg/kg, time AUCmax, route subcutaneous; conditions: in vivo
in vivo [15] = conditions: Sprague-Dawley CD, rat, plasma, sc, 5 mg/kg
in vivo [16] = conditions: Sprague-Dawley CD, rat, brain, sc, 5 mg/kg

Delta-type opioid receptor (Homo sapiens), sequence (P41143 whole entry): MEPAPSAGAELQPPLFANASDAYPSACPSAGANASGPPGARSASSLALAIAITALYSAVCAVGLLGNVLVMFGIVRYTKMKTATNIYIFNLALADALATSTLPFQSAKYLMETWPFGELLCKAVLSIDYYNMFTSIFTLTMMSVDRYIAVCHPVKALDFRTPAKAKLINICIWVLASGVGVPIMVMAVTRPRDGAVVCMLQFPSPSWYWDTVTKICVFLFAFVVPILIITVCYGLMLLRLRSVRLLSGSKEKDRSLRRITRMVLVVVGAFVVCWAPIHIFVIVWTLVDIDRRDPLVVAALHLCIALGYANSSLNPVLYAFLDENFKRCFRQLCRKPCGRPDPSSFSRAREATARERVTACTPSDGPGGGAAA
Kappa-type opioid receptor (Homo sapiens), sequence (P41145 whole entry): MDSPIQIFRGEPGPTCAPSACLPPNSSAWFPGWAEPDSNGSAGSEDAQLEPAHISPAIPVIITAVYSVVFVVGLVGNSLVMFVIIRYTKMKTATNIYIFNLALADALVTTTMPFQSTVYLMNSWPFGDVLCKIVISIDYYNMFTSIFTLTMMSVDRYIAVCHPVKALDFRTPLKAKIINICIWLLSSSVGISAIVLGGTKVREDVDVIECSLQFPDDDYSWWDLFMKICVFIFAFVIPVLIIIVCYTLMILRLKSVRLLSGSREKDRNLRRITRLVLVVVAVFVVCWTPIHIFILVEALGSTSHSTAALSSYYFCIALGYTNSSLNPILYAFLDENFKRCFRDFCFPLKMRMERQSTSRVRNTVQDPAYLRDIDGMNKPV
Mu-type opioid receptor (Homo sapiens), sequence (P35372 whole entry): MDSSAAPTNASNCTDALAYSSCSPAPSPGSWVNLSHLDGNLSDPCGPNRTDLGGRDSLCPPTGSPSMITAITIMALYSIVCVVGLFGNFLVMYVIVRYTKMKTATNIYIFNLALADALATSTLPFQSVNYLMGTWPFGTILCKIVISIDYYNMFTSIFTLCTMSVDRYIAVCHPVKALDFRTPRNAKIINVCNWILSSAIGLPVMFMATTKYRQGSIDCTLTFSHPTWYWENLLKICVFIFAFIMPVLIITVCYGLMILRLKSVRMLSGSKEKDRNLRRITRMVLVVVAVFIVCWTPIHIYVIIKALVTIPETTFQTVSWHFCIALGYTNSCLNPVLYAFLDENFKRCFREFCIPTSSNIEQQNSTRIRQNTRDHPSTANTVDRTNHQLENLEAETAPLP

In the case of CC1CCN(C[C@@H](NC(=O)[C@H]2Cc3ccc(O)cc3CN2)C(C)C)CC1, the Ke [1] is reported as > 3000 nM, the Activity [2] is reported as “inactive” and the Activity [3] is reported as “inactive”. The Activity [4] was “inactive”, the half-life [5] was 30.7 h and the CL/F [6] was 43.8 mL/min/kg. The AUC(0-t) [7] was 1860 ng·h/mL, the AUC [8] was 1900 ng·h/mL and the BPR [9] was 10.07. The Drug uptake [10] was “Active”, the Drug uptake [11] was “Active” and the half-life [12] was 57.2 h. The AUClast [13] was 18765 ng·h/g, the AUC [14] was 21400 ng·h/g and the Tmax (in vivo [15]) was 1 h. For the same molecule, the Tmax (in vivo [16]) was 4 h.
